From patent US20090023646A1, “GHRH analogues” (Centre Hospitalier de L'Universite de Montreal (CHUM), priority 2002, published 2009) come the findings set out here.

The nature of data set [1]: In vitro proteolysis assay in human serum. The class given is in vitro ADME.
Description: Ten μl of a 300 M solution of hGHRH (1-29)NH2 or of a GHRH analogue was solubilized in dimethylsulfoxide (DMSO) and incubated in one of the following conditions: a—190 μl serum (1/100 dilution in picopure water) from 2-month-old male Sprague Dawley rats, at 37° C. for 0, 8, 15, 30 or 60 min, in polypropylene tubes; b—190 μl of human healthy volunteer plasma (from Human Whole Blood Na EDTA, males, drug free (Algorithme Pharma Inc.); project: MTL-P2-155; Lot: MTLP2155-01, supplied by LAB Dev Int); and c—190 μl of human healthy volunteer pooled serum, Lot: X409 (supplied by LAB Dev Int), at 37° C. for 0, 60, 120, 180 or 420 min, in polypropylene tubes. Proteolysis was stopped by adding 800 μl of ice-cold stop buffer (potassium-phosphate buffer, acidified to pH 0.8 with trifluoroacetic acid (TFA) and boiling 5 min (rat serum only). After centrifugation (12000 g, 5 min, 4° C.) (rat serum only), serum-peptide mixtures were passed through a conditioned Sep-Pak C-18 cartridge to extract native GHRH or a GHRH analogue residual concentrations from serum proteins. The native GHRH or the analogue was eluted in 2 ml of 50% acetonitrile-0.01% TFA/50% 0.01% aqueous TFA. Two hundred μl of extracted peptide, representing 1 μg of GHRH or analogue at time 0, was quantified by analytical HPLC, using one μ-Bondapak C18 column (10 μm particle size, 0.39×15 cm) (rat serum) or two C18 column in series (human serum and plasma) and a binary solvent system composed of NaClO4 0.01 M, pH 2.5 and acetonitrile. A linear gradient from 30 to 60% acetonitrile over 45 min (rat serum) or 30 to 50% (human serum and plasma) was used.
More specifically, the values represent the mean, standard deviation and standard error from the mean of 3 to 7 experiments.
The nature of the next data set: in vitro. The settings on record: male, human, plasma.
Data set [2] in a line: In vitro proteolysis assay in rat serum. The settings on record: mean±SEM. The class given is in vitro ADME.
Description: Proteolysis was stopped by adding 800 μl of ice-cold stop buffer (potassium-phosphate buffer, acidified to pH 0.8 with trifluoroacetic acid (TFA) and boiling 5 min (rat serum only). After centrifugation (12000 g, 5 min, 4° C.) (rat serum only), serum-peptide mixtures were passed through a conditioned Sep-Pak C-18 cartridge to extract native GHRH or a GHRH analogue residual concentrations from serum proteins. The native GHRH or the analogue was eluted in 2 ml of 50% acetonitrile-0.01% TFA/50% 0.01% aqueous TFA. Two hundred μl of extracted peptide, representing 1 μg of GHRH or analogue at time 0, was quantified by analytical HPLC, using one μ-Bondapak C18 column (10 μm particle size, 0.39×15 cm) (rat serum) or two C18 column in series (human serum and plasma) and a binary solvent system composed of NaClO4 0.01 M, pH 2.5 and acetonitrile. A linear gradient from 30 to 60% acetonitrile over 45 min (rat serum) or 30 to 50% (human serum and plasma) was used.
In a further data set the test system is adult female rats. In words: In vivo GH secretion after single IV or SC injection in female rats. The arrangement: species or system rat. The protocol:
(§1) The ability of human GHRH analogue #5 (human [D-Ala^2, D-Tyr^10, D-Ala^15, Lys^22] GHRH (1-29)NH2 analogue) to stimulate GH secretion was studied in adult female rats (26-34 weeks at onset of treatment) and in a male Beagle dog.
Human GHRH analogue #5 in 0.9% sodium chloride for injection USP was administered once either by intravenous (IV) or subcutaneous (SC) injection to female rats followed by a 14-day observation period, as shown in Table 2. Prior to administration, all dosing formulations were filtered using a 0.22 μm filter to ensure sterility. The actual amount of GHRH analogue #5 administered was calculated and adjusted based on the animal's most recent body weight. Dosing started at approximately the same time each day, commencing at 9:00 am±30 minutes.
For pharmacodynamic investigations, blood samples (approximately 1.3 ml) were collected from 2 animals per group per time point (maximum 3 time points/animal) via a jugular venipuncture at the following time points: pre-dose, 4, 10, 15, 45 minutes and 5 hours post dosing. […]
Plasma GH was determined by Linco Diagnostic Services using their own kit.
Linco's Rat Growth Hormone radioimmunoassay kit (RIA) (RGH-45HK) is intended for the quantitative determination of Rat Growth Hormone in serum, plasma, and tissue culture media. […]

The test system of the next data set is male Beagle dog. In words: In vivo GH secretion after escalating SC injections in a male Beagle dog. The note with it: AUC not measured. Here is the method: as §1
Human GHRH analogue #5, in 0.9% sodium chloride for injection USP, was administered on days 3, 5 and 8 at dose levels of 0.01, 0.1, and 1 mg/kg body weight, respectively by subcutaneous (SC) injection to an approximately 8-month old male dog as shown in Table 3. On Day 1, the dog received the control (vehicle) article and on Day 11, the animal received the positive control, hGHRH (1-44)NH2 at a dose level of 0.01 mg/kg. Prior to administration, all dosing formulations were filtered using a 0.22 μm filter to ensure sterility. The actual amount of GHRH analogue #5 administered was calculated and adjusted based on the animal's most recent body weight. Dosing started at approximately the same time each day, commencing at 9:00 am±30 minutes. […]
Plasma GH was determined by Linco Diagnostic Services using their own kit. Linco's Porcine/Canine Growth Hormone radioimmunoassay kit (RIA) (PGH-46HK) has been developed to quantitate Growth Hormone in plasma, serum, and tissue culture media. […]

Molecules are shown by their SMILES. Square brackets hold non-standard residues; d marks the D form. Peptide text beside a SMILES is read from it.

On to `CC[C@H](C)[C@H](NC(=O)[C@H](C)NC(=O)[C@H](CC(=O)O)NC(=O)[C@@H](C)NC(=O)[C@@H](N)Cc1ccc(O)cc1)C(=O)N[C@@H](Cc1ccccc1)C(=O)N[C@H](C(=O)N[C@@H](CC(N)=O)C(=O)N[C@@H](CO)C(=O)N[C@H](Cc1ccc(O)cc1)C(=O)N[C@@H](CCCNC(=N)N)C(=O)N[C@@H](CCCCN)C(=O)N[C@H](C(=O)N[C@@H](CC(C)C)C(=O)N[C@H](C)C(=O)N[C@@H](CCC(N)=O)C(=O)N[C@@H](CC(C)C)C(=O)N[C@@H](CO)C(=O)N[C@@H](C)C(=O)N[C@@H](CCCNC(=N)N)C(=O)N[C@@H](CCCCN)C(=O)N[C@@H](CCCCN)C(=O)N[C@@H](CC(C)C)C(=O)N[C@@H](CCC(N)=O)C(=O)N[C@@H](CC(=O)O)C(=O)N[C@H](C(=O)N[C@@H](CCSC)C(=O)N[C@@H](CO)C(=O)N[C@@H](CCCNC(=N)N)C(N)=O)[C@@H](C)CC)C(C)C)[C@@H](C)O` [GHRH analogue #5, [D-Ala^2, D-Tyr^10, D-Ala^15, Lys^22] hGHRH(1-29)-NH2] (H-Y[dA]DAIFTNS[dY]RKVL[dA]QLSARKKLQDIMSR-NH2), for which, in data set [1] (60-min incubation in human serum), the “R2 (60 min): Relative resistance to in vitro proteolysis in comparison with hGHRH(1-29)NH2” value turned out to be 1.55 ± 0.04. Besides, the “R2 (180 min): Relative resistance to in vitro proteolysis in comparison with hGHRH(1-29)NH2” value in data set [1] (180-min incubation in human serum) is reported as 2.93 ± 0.87. Moreover, the Mean residual amount was determined as 100% in data set [1] (human serum, incubation time 0 min) and 50% in data set [1] (human serum, incubation time 420 min). Further, the remaining at 3 h, 15 µM in data set [1] (human, pooled human serum, 180-min incubation in human serum, read-out: Residual peptide concentration (180 min)) is 62 ± 2%; in data set [1] (human, pooled human serum, human serum, incubation time 180 min, read-out: Mean residual amount) it was 63%; in “in vitro” (Mean residual amount) it was 78%; in the data set “in vitro” (Residual peptide concentration), 74 ± 7%. Besides, the remaining at 1 h, 15 µM in data set [1] (human, pooled human serum, human serum, incubation time 60 min, read-out: Mean residual amount) was 88%; in the data set “in vitro” (Mean residual amount), 92%; in data set [2] (male, Sprague Dawley, diluted 1/100, incubation 60 min, read-out: Residual concentration), 50 ± 3%. In addition, the remaining at 2 h, 15 µM in data set [1] (human, pooled human serum, human serum, incubation time 120 min, read-out: Mean residual amount) was 76%; in the data set “in vitro” (Mean residual amount), 84%. Besides, the remaining at 7 h, 15 µM in data set [1] (human, pooled human serum, human serum, incubation time 420 min, read-out: Mean residual amount) was 50%; in “in vitro” (Mean residual amount), 75%. In addition, the Residual concentration in data set [2] (incubation 0 min) is on record as 100 ± 0 % of initial concentration; in data set [2] (incubation 60 min), “significantly higher than that of either GHRH analogue 1, 2 or 3”. For the same molecule, the remaining at 8 min, 15 µM in data set [2] (male, Sprague Dawley, diluted 1/100, incubation 8 min, read-out: Residual concentration) worked out at 92 ± 5%. Also, the remaining at 0.25 h, 15 µM in data set [2] (male, Sprague Dawley, diluted 1/100, incubation 15 min, read-out: Residual concentration) stood at 82 ± 6%. In addition, the remaining at 0.5 h, 15 µM in data set [2] (male, Sprague Dawley, diluted 1/100, incubation 30 min, read-out: Residual concentration) came out at 74 ± 7%. Besides, in the data set with adult female rats (in vivo, conclusion), the “in vivo potency compared with the natural 44 amino acid GHRH” value is reported as “at least two times more potent”. Besides, the “GH secretion compared with response to natural hGHRH(1-44)NH2” value in the data set on adult female rats (rat, pulse amplitude and AUC) is “twice larger”. Moreover, the “GH response compared with response to natural hGHRH(1-44)NH2” value with male Beagle dog was “significantly larger”.
